Starred links: 1 amine or outer side, 2 acyl side, 3 side chain; linkers in the order of their positions; H or OH if unused. Positions of bridges follow the written chain, without caps; N, C: chain ends. Non-standard residues stand in square brackets, D forms with d. Residues, ends and D or L forms follow the SMILES beside them. *: point of attachment. JQ1acid = Cc1sc2c(c1C)C(c1ccc(Cl)cc1)=N[C@@H](CC(=O)*)c1nnc(C)n1-2; dPhg(4-(4-Me-thiazol-5-yl)) = Cc1ncsc1-c1ccc([C@@H](N)C(=O)O)cc1; Phg(4-(4-Me-thiazol-5-yl)) = Cc1ncsc1-c1ccc([C@H](N)C(=O)O)cc1; X3 = Cc1ncsc1-c1ccc(C(N[*:1])C(=O)[*:2])cc1; dBip = N[C@H](Cc1ccc(-c2ccccc2)cc1)C(=O)O; Hyp = O=C(O)[C@@H]1C[C@@H](O)CN1; Tle = CC(C)(C)[C@H](N)C(=O)O; d(hCys) = N[C@H](CCS)C(=O)O; dDab = NCC[C@@H](N)C(=O)O; dNMeC = CN[C@H](CS)C(=O)O; dDap = NC[C@@H](N)C(=O)O; Dap = NC[C@H](N)C(=O)O; AEA = NCCOCC(=O)O; βAla = NCCC(=O)O
Target: T1, BRD4 (Homo sapiens, UniProt O60885)
T1 construct: Mean 488 intensity of BRD4 quantitated in nuclear region; endogenous in cells; host or cells: EoL-1 eosinophilic leukemia cells
Assay: BRD4 degradation assay in EOL1 cells (immunofluorescence imaging)
Assay type: cell-based
Conditions: EoL-1 eosinophilic leukemia cells, 4 hours treatment, nuclear BRD4 immunofluorescence
Method: BRD4 Degradation Assay in EOL1 Cells
EoL-1 eosinophilic leukemia cells were seeded on day 1 at a density of 45,000 cells per well in Corning PureCoat Amine Microplates, (Corning #354719) in 45 μL/well of assay media (RPMI, 10% FBS, containing L-glutamine). After cells attached to cell plate, compounds were serially diluted ⅓ in dimethylsulfoxide (DMSO) to create 20-point dilutions across a 384 well v-bottom polypropylene microplate (Greiner #781091). 2 μL of each sample from the serial dilution was transferred to 98 μL of assay media as an intermediate dilution. 5 μL of each well of the intermediate dilution was added to 45 μL of cell plate. Columns 1, 2, 23 and 24 were treated with only 0.2% final concentration of DMSO for data normalization as “neutral controls”. After compound treatment, cell plates were stored in a 37° C. incubator for 4 hours. After 4 hours cells were fixed in 3.7% w/v final concentration of paraformaldehyde by addition of 15 μL of 16% w/v paraformaldehyde (Electron Microscopy Sciences #15710-S) directly to the 50 μL media and compound in the cell plate. Cell plate was incubated at RT for 20 minutes. Well contents were aspirated and washed with 100 μL/well PBS 3 times. 50 ul/well of phosphate Buffered Saline (PBS) (pH 7.5) containing 0.5% w/v bovine serum albumen, 0.5% w/v Triton X-100 (Block/Permeabilization Buffer) was added to each well. Samples were incubated for 20 minutes. Well contents were aspirated and washed 3 times with 100 μL/well of PBS. PBS was aspirated from the well and 50 μL per well of EoL-1 Block Buffer (PBS containing 10% Normal Goat Serum (AbCam #ab7481)) was added to each well. Plates were incubated at room temperature for 30 minutes. Block buffer was decanted from the wells. Immunofluorescence staining of BRD4 was carried out by diluting mAB Anti-BRD4 [EPR5150] antibody (Abcam 128874) 1:500 into Antibody Dilution Buffer (PBS, 2% Normal Goat Serum). 25 μL per well of BRD4 antibody diluted in buffer was added and incubated overnight at 4° C.
On day-2 samples were washed 3 times with 100 μL/well of PBS. 25 μL/well of secondary antibody solution (Goat Anti-Rabbit IgG, DyLight 488 Conjugated Highly Cross-adsorbed Thermo Fisher #35553) and Hoechst 33342 1 μg/ml diluted in Antibody Dilution Buffer) were dispensed into each well. Hoechst 33342 only was added to bottom 3 columns for data normalization as “inhibitor controls”. Samples were incubated for 2 hours at room temperature. Samples were washed 3 times with 100 μL PBS. Quantitative fluorescence imaging of BRD4 was carried out using an Opera Phenix High-Content Screening System. Fluorescent images of the samples were captured using 488 nm and 405 nm channels. Hoechst channel was used to identify nuclear region. Mean 488 intensity of BRD4 quantitated in nuclear region. Data analysis was carried out using Genedata Screener, with DMSO and no primary antibody control treated samples being used to define the 0% and 100% changes in BRD4. The dose-response log(inhibitor) vs. response used to define the inflexion point of curve (DC50) and the plateau of the maximal effect.
The individual topological polar surface area (TPSA) and cLogP values were calculated using Chemdraw v. 15.1 (PerkinElmer). Half life of the ternary VHL/BD1 and VHL/BD2 complexes, DC50 of BRD4 in EOL1 cells, topological polar surface area of a molecule (TPSA) and c log P (lipophilicity) for compounds described herein are provided in Table 3.

Going from `Cc1ncsc1-c1ccc([C@H]2NC(=O)[C@@H]3C[C@@H](O)CN3C(=O)[C@H](C(C)(C)C)NC(=O)CSC[C@H](C(N)=O)NC(=O)[C@@H](CNC(=O)C[C@@H]3N=C(c4ccc(Cl)cc4)c4c(sc(C)c4C)-n4c(C)nnc43)NC(=O)CNC2=O)cc1` [Compound 1] ({CH2CO}-[Tle][Hyp][dPhg(4-(4-Me-thiazol-5-yl))]G[dDap](JQ1acid)[dC]-NH2; thioether N-6) to `Cc1ncsc1-c1ccc([C@@H]2NC(=O)[C@@H]3C[C@@H](O)CN3C(=O)[C@H](C(C)(C)C)NC(=O)CSC[C@H](C(N)=O)NC(=O)[C@@H](CNC(=O)C[C@@H]3N=C(c4ccc(Cl)cc4)c4c(sc(C)c4C)-n4c(C)nnc43)NC(=O)CNC2=O)cc1` [Compound 2] ({CH2CO}-[Tle][Hyp][Phg(4-(4-Me-thiazol-5-yl))]G[dDap](JQ1acid)[dC]-NH2; thioether N-6), the DC50 rises from < 1 µM to > 20 µM.

`Cc1ncsc1-c1ccc(C2NC(=O)[C@@H]3C[C@@H](O)CN3C(=O)[C@H](C(C)(C)C)NC(=O)CSCC[C@H](C(N)=O)NC(=O)[C@@H](CNC(=O)C[C@@H]3N=C(c4ccc(Cl)cc4)c4c(sc(C)c4C)-n4c(C)nnc43)NC(=O)CNC2=O)cc1` (stereo partly drawn) [Compound 3] ({CH2CO}-[Tle][Hyp][X3]G[dDap](JQ1acid)[d(hCys)]-NH2; thioether N-6) and `Cc1ncsc1-c1ccc([C@H]2NC(=O)[C@@H]3C[C@@H](O)CN3C(=O)[C@H](C(C)(C)C)NC(=O)CSCC[C@H](C(N)=O)NC(=O)[C@@H](CNC(=O)C[C@@H]3N=C(c4ccc(Cl)cc4)c4c(sc(C)c4C)-n4c(C)nnc43)NC(=O)CCNC2=O)cc1` [Compound 5] ({CH2CO}-[Tle][Hyp][dPhg(4-(4-Me-thiazol-5-yl))][βAla][dDap](JQ1acid)[d(hCys)]-NH2; thioether N-6) cannot be ordered by DC50: < 1 µM for the first, < 20 µM for the second.

Compared with `Cc1ncsc1-c1ccc(C2NC(=O)[C@@H]3C[C@@H](O)CN3C(=O)[C@H](C(C)(C)C)NC(=O)CSC[C@H](C(N)=O)NC(=O)[C@@H](CNC(=O)C[C@@H]3N=C(c4ccc(Cl)cc4)c4c(sc(C)c4C)-n4c(C)nnc43)NC(=O)CCNC2=O)cc1` (stereo partly drawn) [Compound 4] ({CH2CO}-[Tle][Hyp][X3][βAla][dDap](JQ1acid)[dC]-NH2; thioether N-6), `Cc1ncsc1-c1ccc([C@H]2NC(=O)[C@@H]3C[C@@H](O)CN3C(=O)[C@H](C(C)(C)C)NC(=O)CSC[C@H](C(N)=O)NC(=O)[C@H](CNC(=O)C[C@@H]3N=C(c4ccc(Cl)cc4)c4c(sc(C)c4C)-n4c(C)nnc43)NC(=O)CNC2=O)cc1` [Compound 13] ({CH2CO}-[Tle][Hyp][dPhg(4-(4-Me-thiazol-5-yl))]G[Dap](JQ1acid)[dC]-NH2; thioether N-6) is higher in DC50: < 20 µM for the first, > 20 µM for the second.

`Cc1ncsc1-c1ccc([C@H]2NC(=O)[C@@H]3C[C@@H](O)CN3C(=O)[C@H](C(C)(C)C)NC(=O)CNC(=O)[C@H](CCC(N)=O)NC(=O)[C@@H](CNC(=O)C[C@@H]3N=C(c4ccc(Cl)cc4)c4c(sc(C)c4C)-n4c(C)nnc43)NC(=O)CNC2=O)cc1` [Compound 6] (cyclo(G[Tle][Hyp][dPhg(4-(4-Me-thiazol-5-yl))]G[dDap](JQ1acid)Q)) and `Cc1ncsc1-c1ccc([C@@H]2NC(=O)[C@@H]3C[C@@H](O)CN3C(=O)[C@H](C(C)(C)C)NC(=O)CNC(=O)[C@H](CCC(N)=O)NC(=O)[C@@H](CNC(=O)C[C@@H]3N=C(c4ccc(Cl)cc4)c4c(sc(C)c4C)-n4c(C)nnc43)NC(=O)CNC2=O)cc1` [Compound 7] (cyclo(G[Tle][Hyp][Phg(4-(4-Me-thiazol-5-yl))]G[dDap](JQ1acid)Q)) cannot be ordered by DC50: < 20 µM for the first, < 20 µM for the second.

First: Cc1sc2c(c1C)C(c1ccc(Cl)cc1)=N[C@@H](CC(=O)NC[C@H]1NC(=O)CNC(=O)[C@@H](C)NC(=O)[C@@H]3C[C@@H](O)CN3C(=O)[C@H](C(C)(C)C)NC(=O)CSC[C@H](C(N)=O)NC1=O)c1nnc(C)n1-2 [Compound 8] ({CH2CO}-[Tle][Hyp][dA]G[dDap](JQ1acid)[dC]-NH2; thioether N-6)
Second: Cc1ncsc1-c1ccc([C@@H]2NC(=O)[C@@H]3C[C@@H](O)CN3C(=O)[C@H](C(C)(C)C)NC(=O)CSC[C@H](C(N)=O)NC(=O)[C@H](CNC(=O)C[C@@H]3N=C(c4ccc(Cl)cc4)c4c(sc(C)c4C)-n4c(C)nnc43)NC(=O)CNC2=O)cc1 [Compound 14] ({CH2CO}-[Tle][Hyp][Phg(4-(4-Me-thiazol-5-yl))]G[Dap](JQ1acid)[dC]-NH2; thioether N-6)
The DC50 of the first is lower: < 20 µM for the first, > 20 µM for the second.

`Cc1ncsc1-c1ccc([C@H]2NC(=O)[C@@H]3C[C@@H](O)CN3C(=O)[C@H](C(C)(C)C)NC(=O)CSC[C@H](C(N)=O)NC(=O)[C@@H](CCNC(=O)C[C@@H]3N=C(c4ccc(Cl)cc4)c4c(sc(C)c4C)-n4c(C)nnc43)NC(=O)CNC2=O)cc1` [Compound 9] ({CH2CO}-[Tle][Hyp][dPhg(4-(4-Me-thiazol-5-yl))]G[dDab](JQ1acid)[dC]-NH2; thioether N-6) and `Cc1ncsc1-c1ccc([C@@H]2NC(=O)[C@@H]3C[C@@H](O)CN3C(=O)[C@H](C(C)(C)C)NC(=O)CSC[C@H](C(N)=O)NC(=O)[C@@H](CCNC(=O)C[C@@H]3N=C(c4ccc(Cl)cc4)c4c(sc(C)c4C)-n4c(C)nnc43)NC(=O)CNC2=O)cc1` [Compound 10] ({CH2CO}-[Tle][Hyp][Phg(4-(4-Me-thiazol-5-yl))]G[dDab](JQ1acid)[dC]-NH2; thioether N-6) cannot be ordered by DC50: > 20 µM for the first, > 20 µM for the second.

Compared with `Cc1ncsc1-c1ccc([C@H]2NC(=O)[C@@H]3C[C@@H](O)CN3C(=O)[C@H](C(C)(C)C)NC(=O)CSC[C@H](C(=O)NCC(=O)NCC(=O)NCC(N)=O)NC(=O)[C@@H](CNC(=O)C[C@@H]3N=C(c4ccc(Cl)cc4)c4c(sc(C)c4C)-n4c(C)nnc43)NC(=O)CNC2=O)cc1` [Compound 11] ({CH2CO}-[Tle][Hyp][dPhg(4-(4-Me-thiazol-5-yl))]G[dDap](JQ1acid)[dC]GGG-NH2; thioether N-6), `Cc1ncsc1-c1ccc([C@H]2NC(=O)[C@@H]3C[C@@H](O)CN3C(=O)[C@H](C(C)(C)C)NC(=O)CSC[C@H](C(N)=O)N(C)C(=O)[C@@H](CNC(=O)C[C@@H]3N=C(c4ccc(Cl)cc4)c4c(sc(C)c4C)-n4c(C)nnc43)NC(=O)CNC2=O)cc1` [Compound 15] ({CH2CO}-[Tle][Hyp][dPhg(4-(4-Me-thiazol-5-yl))]G[dDap](JQ1acid)[dNMeC]-NH2; thioether N-6) is lower in DC50: > 20 µM for the first, < 20 µM for the second.

Going from `Cc1ncsc1-c1ccc([C@H]2NC(=O)[C@@H]3C[C@@H](O)CN3C(=O)[C@H](C(C)(C)C)NC(=O)CSC[C@H](C(N)=O)NC(=O)[C@@H](CNC(=O)C[C@@H]3N=C(c4ccc(Cl)cc4)c4c(sc(C)c4C)-n4c(C)nnc43)NC(=O)[C@H](C)NC2=O)cc1` [Compound 12] ({CH2CO}-[Tle][Hyp][dPhg(4-(4-Me-thiazol-5-yl))]A[dDap](JQ1acid)[dC]-NH2; thioether N-6) to `Cc1ncsc1-c1ccc([C@H]2NC(=O)[C@@H]3C[C@@H](O)CN3C(=O)[C@H](C(C)(C)C)NC(=O)COCCNC(=O)[C@@H](CNC(=O)C[C@@H]3N=C(c4ccc(Cl)cc4)c4c(sc(C)c4C)-n4c(C)nnc43)NC(=O)CNC2=O)cc1` [Compound 16] (cyclo([AEA][Tle][Hyp][dPhg(4-(4-Me-thiazol-5-yl))]G[dDap](JQ1acid))), the DC50 falls from > 20 µM to < 1 µM.

`Cc1ncsc1-c1ccc([C@@H]2NC(=O)[C@@H]3C[C@@H](O)CN3C(=O)[C@H](C(C)(C)C)NC(=O)COCCNC(=O)[C@@H](CNC(=O)C[C@@H]3N=C(c4ccc(Cl)cc4)c4c(sc(C)c4C)-n4c(C)nnc43)NC(=O)CNC2=O)cc1` [Compound 17] (cyclo([AEA][Tle][Hyp][Phg(4-(4-Me-thiazol-5-yl))]G[dDap](JQ1acid))) and `Cc1sc2c(c1C)C(c1ccc(Cl)cc1)=N[C@@H](CC(=O)NC[C@H]1NC(=O)CNC(=O)[C@@H](Cc3ccc(-c4ccccc4)cc3)NC(=O)[C@@H]3C[C@@H](O)CN3C(=O)[C@H](C(C)(C)C)NC(=O)CSC[C@H](C(N)=O)NC1=O)c1nnc(C)n1-2` [Compound 18] ({CH2CO}-[Tle][Hyp][dBip]G[dDap](JQ1acid)[dC]-NH2; thioether N-6) cannot be ordered by DC50: < 1 µM for the first, < 1 µM for the second.

Reference: patent publication US12187816B2, “Macrocyclic compounds and methods of use thereof” (Genentech, Inc., priority 2020, dated 2025)
